Entries after “also recorded” stand apart in the source; their conditions may differ.
Experiments:
[1] = tested on: eiPSC-derived cardiac spheroids; test: Immunostaining of cryosectioned eiPSC-derived cardiac spheroids; format: cell-based, human; details: cardiac spheroids day 12.5
Procedure: (§1) The iPSC spheroids and the iPSC-derived Cardiac spheroids were fixed in 4% PFA in 1×PBS at 4° C. overnight. The fixed spheroids were incubated sequentially in 10% and 15% sucrose solutions in saline for 4 h, respectively. Afterward, the spheroids were put in a plastic box and embedded in OCT for cryosectioning. Slices of the spheroids of 10 μm thick were obtained by cutting the frozen sample on a Leica cryostat platform and then immediately attached onto the Leica Apex high adhesive glass slides.
(§2) For immunostaining, the slides were gently rinsed twice with 1×PBS to remove the OCT and then incubated with 0.1% Tween-20 and 5% normal goat serum in 1×PBS for 1 h at room temperature (RT) to block non-specific bindings. Later, the samples were incubated with primary antibodies at 4° C. overnight. The dilution and product information of the primary antibodies were as follows: OCT-4 (1:500 dilution, Cell Signaling Technologies), NANOG (1:500 dilution, Cell Signaling Technologies), SSEA-4 (1:500 dilution, Cell Signaling Technologies), cTnT (1:500 dilution, Cell Signaling Technologies), CONNEXIN-43 (CX-43, 1:400 dilution, Santa Cruz Biotechnology), DESMIN (1:500 dilution, Santa Cruz Biotechnology), α-ACTININ (1:500 dilution; Santa Cruz Biotechnology), BRACHYURY (1:500; Santa Cruz Biotechnology), NKX2.5 (1:500; Santa Cruz Biotechnology), NESTIN (1:500; R & D Systems), MUSASHI-1 (1:500; R & D Systems), and TUJ-1 (1:500; R & D Systems). Afterward, the samples were rinsed with 1×PBS thrice and then incubated with the associated secondary antibodies (goat anti-rabbit IgG FITC and goat-anti-mouse IgG PE, Invitrogen) in 1×PBS for 1.5 h at RT. Lastly, the samples were rinsed with 1 ml of 1×PBS for 3 min and the nuclei were stained with 1 μg/ml DAPI solution for 5 min at RT. The samples were imaged with the Zeiss LSM 710 microscope.

[2] = tested on: human eiPSCs; test: Flow cytometry of protein markers in eiPSC spheroids and cardiac spheroids; format: cell-based
Procedure: For flow cytometry, the eiPSC spheroids were collected on day 0 and the cardiac spheroids were collected on days 1.5, 2.5, 12.5, 15. The spheroids were dissociated to single cells by 0.25% trypsin for 5 min at 37° C. and then fixed with 75% ethanol at 4° C. overnight. The cells were permeabilized with 0.05% Triton X-100 for 3 min and then rinsed with 1×PBS twice. The cell numbers were adjusted to 1×10^6 cells/tube in 700 μL of saline for each marker. These cells were incubated with primary antibodies including OCT-4 (1:500 dilution, Cell Signaling Technologies), NANOG (1:500 dilution, Cell Signaling Technologies), SSEA-4 (1:500 dilution, Cell Signaling Technologies), BRACHYURY (1:500; Santa Cruz Biotechnology), NKX2.5 (1:500; Santa Cruz Biotechnology), cTnT (1:500 dilution, Cell Signaling Technologies), cTnI (1:500 dilution, Cell Signaling Technologies), α-ACTININ (1:500 dilution; Santa Cruz Biotechnology), MUSASHI-1 (1:500; R&D Systems), and TUJ-1 (1:500; R&D Systems) at 4° C. overnight. Subsequently, the samples were rinsed with 1×PBS thrice before incubation with corresponding secondary antibodies: goat anti-mouse IgG FITC and goat anti-rabbit IgG PE, respectively (1:1000; Invitrogen) for 1 h at RT. The samples were then rinsed with 1×PBS thrice before flow cytometry. The negative controls were the cells incubated with respective primary antibodies as aforementioned (no incubation with a secondary antibody).

[3] = tested on: eiPSC spheroids; test: Teratoma assay of eiPSC spheroids injected subcutaneously into NOD/SCID mice; format: in vivo; details: eiPSC spheroids from 1 and 10 μM RI groups, day 0, s.c. in NOD/SCID mice
Procedure: To test the pluripotency of the cells in the 3D iPSC spheroids in vivo with the teratoma assay, the eiPSC spheroids were directly injected subcutaneously (s.c.) into the dorsal rear flank of severe combined immunodeficient mice (NOD.CB17-scid). A total of 2×10^6 cells in 300 μL of PBS was injected into each mouse (age: 5 weeks, and 5 mice per group). After 5 weeks, the mice were sacrificed, and the resulting teratoma were collected and fixed in 4% paraformaldehyde (PFA) for 3 days. Afterward, the samples were cut into small pieces of ˜0.5 cm^3, embedded in paraffin, and sectioned into slices of 5 μm thick. The slices were stained with hematoxylin and eosin (H&E) and imaged with a Zeiss LSM 710 microscope. All animal studies were approved by the Institutional Animal Care and Use Committee (IACUC, #R-MAY-18-24) at the University of Maryland, College Park.

[4] = tested on: IMR90-1 human iPSCs; test: Immunostaining of IMR90-1 cardiac spheroids; format: cell-based; details: day 12.5
Procedure: as §1, §2

C[C@@H](N)[C@H]1CC[C@H](C(=O)Nc2ccncc2)CC1.Cl.Cl (relative stereo) [RI, (+)-(R)-trans-4-(1-aminoethyl)-N-(4-pyridyl) cyclo-hexanecarboxamide dihydrochloride]
cells positive for WNT4 and CD44 ([1]; 1 μM RI): not the 1 μM RI group
expression of cTnT and CONNEXIN-43 (CX-43) ([1]; 1 μM RI): highly expressed
staining of neural lineage markers TUJ-1 and MUSASHI-1 ([1]; 1 μM RI): no evident staining
cells positive for WNT4 and CD44 ([1]; 10 μM RI): positive
expression of cTnT and CONNEXIN-43 (CX-43) ([1]; 10 μM RI): either weak (for cTnT) or barely visible (for CX-43)
staining of neural lineage markers TUJ-1 and MUSASHI-1 ([1]; 10 μM RI): positive
expression of pluripotency markers OCT-4, NANOG, SSEA-4 ([2]; 1 μM RI group versus 10 μM RI group, day 0): significantly higher
expression of neural-specific protein markers MUSASHI-1 and TUJ-1 ([2]; 1 μM RI, cardiac spheroids day 12.5, dihydrochloride): negligible; also recorded: negative
BRACHYURY-positive cells ([2]; 1 μM RI, day 1.5, after CHIR99021 and BIO for 1 day): ~100%
NKX2.5 expression ([2]; 1 μM RI, day 2.5, after XAV939 and KY02111): ~100%
cTnI-positive cells ([2]; 1 μM RI, day 12.5): 93.9%
cells positive for sarcomere-related proteins including α-ACTININ and cTnI ([2]; 1 μM RI, day 12.5): more than 90%
α-ACTININ-positive cells ([2]; 1 μM RI, day 12.5): 95%
expression of ectoderm marker NESTIN ([2]; 1 μM RI, eiPSC spheroids day 0): negligible
expression of ectoderm marker NESTIN ([2]; 10 μM RI, eiPSC spheroids after four-day culture (day 0)): 73.1%
percentage of cTnT-positive cells and mean intensity of cTnT fluorescence staining ([2]; RI from 1 to 5 to 10 μM, cardiac spheroids day 15, dihydrochloride): decreased with the increase of the RI concentration; also recorded: decreases as the RI treatment concentration increases
teratoma formation (pluripotency in vivo) [3]: forming teratomas consisting of tissues from all the three germ layers
expression of cTnT and CX-43 ([4]; 1 μM RI): high with an evident expression of the gap junction protein CX-43
immunostaining of neural markers MUSASHI and TUJ-1 ([4]; 1 μM RI): negligible
expression of cTnT and CX-43 ([4]; 10 μM RI): low and negligible, respectively
immunostaining of neural markers MUSASHI and TUJ-1 ([4]; 10 μM RI): existence of MUSASHI- and TUJ-1-positive cells

From patent publication US20230035127A1, “CULTURE AND DIFFERENTIATION OF PLURIPOTENT STEM CELLS” (University of Maryland, College Park, priority 2021, published 2023)
